What was measured:
Type in all cases: cell-based
[1] = system: Trypanosoma cruzi amastigotes cultured in 3T3 fibroblast cells; test: Assay for proliferation of kinetoplastid parasite Trypanosoma cruzi (beta-galactosidase/CPRG readout); conditions: NIH3T3, 144 h, Tulahuen strain in 3T3 cells, 6 day incubation, read-out: T cruzi EC50
Text: Compounds of the invention can be assayed to measure their capacity to inhibit proliferation of kinetoplastid parasite Trypanosoma cruzi. The screening procedure is for identifying compounds with inhibitor activity against Trypanosoma cruzi amastigotes cultured in 3T3 fibroblast cells. The assay is done using the mammalian stage (amastigotes) of T. cruzi that replicates in the intracellular space of host cells. The host cells are initially infected with the culture-derived trypomastigotes that rapidly invade and then divide as amastigotes. The protocol uses the Tulahuen strain of T. cruzi that has been engineered to express the E. coli beta-galactosidase gene (Lac-Z) (Antimicr. Agents Chemoth. 40:2592, 1996). This allows for a colorimetric readout by using the substrate CPRG and an absorbance plate reader.
3T3 fibroblast cells are re-suspended in RPMI-1640 medium without phenol red medium supplemented with 10% FBS (heat inactivated), 100 μg/ml penicillin, and 100 μg/ml streptomycin. Forty μL of suspension (1,000 cells) is dispensed into 384-well plates and incubated overnight at 37° C. temperature and in atmosphere containing 5% CO2. The following day, 100 nL of compounds of the invention in DMSO are added to plate wells containing 3T3 cells. At the same time control compounds (benznidazole and nifurtimox) and DMSO are added to plates to serve as the positive and negative controls, respectively. After that, 10 μL of media containing 10,000 T. cruzi trypomastigotes are added to each plate well and plates are placed back into incubators. After 6 day incubation, 10 μL of reagent solution (0.6 mM CPRG, 0.6% NP-40 in PBS) is added to plates and incubated at room temperature for 2 hours. Absorbance is then measured on SpectraMax Gemini fluorimeter to determine relative number of T. cruzi cells present in each plate well. The percentage inhibition of 50%, EC50, is calculated for each compound.

[2] = system: L. donovani HU3 strain in mouse peritoneal macrophages; test: Proliferation of L. donovani in mouse peritoneal macrophages (SybrGreen, high-content imaging); conditions: Leishmania donovani, Peritoneal macrophage, 120 h; infected mouse peritoneal macrophages, 5 days; read-out: L. donavani Macrophage EC50
Procedure, shortened: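 Peritoneal macrophages from uninfected BALB/c mice were infected for 24 h with spleen-derived amastigotes (9-11 week infected mice), then exposed to compound for 5 days at 37° C. Fixed cells stained with SybrGreen and parasite nuclei counted by high-content imaging; EC50 calculated from inhibition.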

[3] = system: Leishmania donovani axenic amastigote parasites; test: Assay for Leishmania proliferation in vitro (axenic amastigotes, Cell TiterGlo); conditions: 48 h, 2 day incubation, read-out: L. donovani amastigotes EC50
Procedure, shortened: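 L. donovani axenic amastigotes (9600 per well) are cultured with compound for 2 days at 37° C, 5% CO2 in RPMI-based medium at pH 5.5. Viability is read by CellTiterGlo luminescence, and EC50 is calculated.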

[4] = system: Trypanosoma brucei Lister 427 strain; test: Assay for proliferation of kinetoplastid parasite Trypanosoma brucei (Cell Titer Glo); conditions: bloodstream form, 48 hours, read-out: T. brucei EC50
Text: The proliferation is quantified by the addition of Cell Titer Glo (Promega®) a luminescent cell viability assay that measures the number of viable cells in culture based on the quantification of cellular ATP amount, which is an indicator of metabolically active cells. The following assay illustrates the invention without in any way limiting the scope of the invention. This parasite proliferation assay measures the increase in parasite growth using an assay that measures ATP activity, Cell Titer Glo®.
Trypanosoma brucei Lister 427 strain is grown in HMI-9 Trypanosome media for T. brucei bloodstream form. 30 μl of HMI-9 media is dispensed into 384 well assay plates. 200 nL of compounds of the invention (in DMSO), including anti-trypanosome controls (Pentamidine and suramin), are then transferred into the assay plates, as well as DMSO alone to serve as a negative control for inhibition. Then 25 μl of a suspension of T. brucei culture in HMI-9 media is dispensed into the assay plates. The final concentration of parasites in culture corresponds to 1.7% of 0.5 uM ATP activity with Cell Titer Glo® in HMI-9 media. The plates are placed in a 37° C. incubator for 48 hours in an atmospheric environment containing 5% CO2. 40 μl of Cell Titer Glo® is dispensed into the plates. The plates are then read for luminescence. The percentage inhibition of 50%, EC50, is calculated for each compound.

Row | Structure (SMILES) | EC50 [1] | EC50 [2] | EC50 [3] | EC50 [4]
1 | CC(C)(N)C(=O)Nc1cnc2nc(-c3cc(NC(=O)c4ccco4)ccc3Cl)[nH]c2c1 [Example 26, N-{3-[6-(2-amino-2-methylpropanamido)-1H-imidazo[4,5-b]pyridin-2-yl]-4-chlorophenyl}furan-2-carboxamide] | 14800 nM | 23300 nM | > 25000 nM | 530 nM
2 | O=C(C[C@@H]1CCNC1)Nc1cnc2nc(-c3cc(NC(=O)c4ccco4)ccc3Cl)[nH]c2c1 [Example 32, N-[4-chloro-3-(6-{2-[(3S)-pyrrolidin-3-yl]acetamido}-1H-imidazo[4,5-b]pyridin-2-yl)phenyl]furan-2-carboxamide] | > 20000 nM | > 50000 nM | > 25000 nM | 7800 nM
3 | O=C(C[C@H]1CCNC1)Nc1cnc2nc(-c3cc(NC(=O)c4ccco4)ccc3Cl)[nH]c2c1 [Example 34, N-[4-chloro-3-(6-{2-[(3R)-pyrrolidin-3-yl]acetamido}-1H-imidazo[4,5-b]pyridin-2-yl)phenyl]furan-2-carboxamide] | > 20000 nM | > 50000 nM | > 25000 nM | 15200 nM
4 | O=C(Nc1ccc(Cl)c(-c2nc3ncc(NC(=O)C4(O)CC4)cc3[nH]2)c1)c1ccco1 [Example 35, N-(4-chloro-3-{6-[(1-hydroxycyclopropane)amido]-1H-imidazo[4,5-b]pyridin-2-yl}phenyl)furan-2-carboxamide] | > 20000 nM | > 50000 nM | 11400 nM | 907 nM
5 | N#CC1(C(=O)Nc2cnc3nc(-c4cc(NC(=O)c5ccco5)ccc4Cl)[nH]c3c2)CC1 [Example 41, N-(4-chloro-3-{6-[(1-cyanocyclopropane)amido]-1H-imidazo[4,5-b]pyridin-2-yl}phenyl)-furan-2-carboxamide] | 820 nM | 1450 nM | 680 nM | 80 nM
6 | COCC1(C(=O)Nc2cnc3nc(-c4cc(NC(=O)c5ccco5)ccc4Cl)[nH]c3c2)CC1 [Example 42, N-[4-chloro-3-(6-{[1-(methoxymethyl)cyclopropane]amido}-1H-imidazo[4,5-b]pyridin-2-yl)phenyl]furan-2-carboxamide] | 1320 nM | 1910 nM | 1090 nM | 185 nM
7 | O=C(Nc1ccc(Cl)c(-c2nc3ncc(NC(=O)C4CC4(F)F)cc3[nH]2)c1)c1ccco1 (centres unmarked) [Example 44, N-(4-chloro-3-{6-[(2,2-difluorocyclopropane)amido]-1H-imidazo[4,5-b]pyridin-2-yl}phenyl)furan-2-carboxamide] | 3900 nM | 5300 nM | 2380 nM | 282 nM
8 | O=C(Nc1ccc(Cl)c(-c2nc3ncc(NC(=O)C4CC4)cc3[nH]2)c1)c1ccco1 [Example 45, N-(4-chloro-3-{6-cyclopropaneamido-1H-imidazo[4,5-b]pyridin-2-yl}phenyl)-furan-2-carboxamide] | 2860 nM | 1160 nM | 450 nM | 115 nM
9 | CC(C)OC(=O)Nc1cnc2nc(-c3cc(NC(=O)c4ccc(F)o4)ccc3Cl)[nH]c2c1 [Example 47, propan-2-yl N-{2-[2-chloro-5-(5-fluorofuran-2-amido)phenyl]-1H-imidazo[4,5-b]pyridin-6-yl}carbamate] | 400 nM | 1520 nM | 900 nM | 200 nM
10 | CC(C)OC(=O)Nc1cnc2nc(-c3cc(NC(=O)c4ccc(C#N)o4)ccc3Cl)[nH]c2c1 [Example 48, propan-2-yl N-{2-[2-chloro-5-(5-cyanofuran-2-amido)phenyl]-1H-imidazo[4,5-b]pyridin-6-yl}carbamate] | 141 nM | 560 nM | 620 nM | 223 nM
11 | CC1(OC(=O)Nc2cnc3nc(-c4cc(NC(=O)c5ccco5)ccc4Cl)[nH]c3c2)CC1 [Example 49, 1-methylcyclopropyl N-{2-[2-chloro-5-(furan-2-amido)phenyl]-1H-imidazo[4,5-b]pyridin-6-yl}carbamate] | 440 nM | 490 nM | 480 nM | 81 nM
12 | CC(C)OC(=O)Nc1cnc2nc(-c3cc(NC(=O)N4CCCC4)ccc3Cl)[nH]c2c1 [Example 54, propan-2-yl N-(2-{2-chloro-5-[(pyrrolidin-1-yl)carbonylamino]phenyl}-1H-imidazo[4,5-b]pyridin-6-yl)carbamate] | 1390 nM | 1860 nM | 590 nM | 68 nM
13 | O=C(Nc1ccc(Cl)c(-c2nc3ncc(NC(=O)C4CCC4)cc3[nH]2)c1)c1ccco1 [Example 55, N-(4-chloro-3-{6-cyclobutaneamido-1H-imidazo[4,5-b]pyridin-2-yl}phenyl)furan-2-carboxamide] | 1250 nM | 830 nM | 950 nM | 75 nM
14 | CC1(C)CC(C(=O)Nc2cnc3nc(-c4cc(NC(=O)c5ccco5)ccc4Cl)[nH]c3c2)C1 [Example 56, N-(4-chloro-3-{6-[(3,3-dimethylcyclobutane)amido]-1H-imidazo[4,5-b]pyridin-2-yl}phenyl)furan-2-carboxamide] | 1230 nM | 2230 nM | 2960 nM | 346 nM
15 | O=C(Nc1ccc(Cl)c(-c2nc3ncc(NC(=O)C4CC(F)(F)C4)cc3[nH]2)c1)c1ccco1 [Example 57, N-(4-chloro-3-{6-[(3,3-difluorocyclobutane)amido]-1H-imidazo[4,5-b]pyridin-2-yl}phenyl)furan-2-carboxamide] | 7400 nM | 12800 nM | 8200 nM | 500 nM
16 | CC(C)(C)OC(=O)NCC1(C(=O)Nc2cnc3nc(-c4cc(NC(=O)c5ccco5)ccc4Cl)[nH]c3c2)CC1 [Example 63, tert-butyl N-{[1-({2-[2-chloro-5-(furan-2-amido)phenyl]-1H-imidazo[4,5-b]pyridin-6-yl}carbamoyl)cyclopropyl]methyl}carbamate] | 248 nM | 530 nM | 460 nM | 44 nM
17 | O=C(Nc1ccc(Cl)c(-c2nc3ncc(NC(=O)C4CC4)cc3[nH]2)c1)c1ccc(F)o1 [Example 65, N-(4-chloro-3-{6-cyclopropaneamido-1H-imidazo[4,5-b]pyridin-2-yl}phenyl)-5-fluorofuran-2-carboxamide] | 1020 nM | 570 nM | 1470 nM | 23 nM
18 | O=C(CCCN1CCOCC1)Nc1cnc2nc(-c3cc(NC(=O)c4ccc(F)o4)ccc3Cl)[nH]c2c1 [Example 66, N-(4-chloro-3-{6-[4-(morpholin-4-yl)butanamido]-1H-imidazo[4,5-b]pyridin-2-yl}phenyl)-5-fluorofuran-2-carboxamide] | > 20000 nM | 39200 nM | > 25000 nM | 2300 nM
19 | CC(C)(C)OC(=O)NCCC(=O)Nc1cnc2nc(-c3cc(NC(=O)c4ccc(F)o4)ccc3Cl)[nH]c2c1 [Example 68, tert-butyl N-[2-({2-[2-chloro-5-(5-fluorofuran-2-amido)phenyl]-1H-imidazo[4,5-b]pyridin-6-yl}carbamoyl)ethyl]carbamate] | 7600 nM | 7000 nM | 6200 nM | 411 nM
20 | N#CC1(C(=O)Nc2cnc3nc(-c4cc(NC(=O)c5ccc(F)o5)ccc4Cl)[nH]c3c2)CC1 [Example 70, N-(4-chloro-3-{6-[(1-cyanocyclopropane)amido]-1H-imidazo[4,5-b]pyridin-2-yl}phenyl)-5-fluorofuran-2-carboxamide] | 720 nM | 530 nM | 1200 nM | 32 nM
